Reference: patent publication US7740775B2, “Method for the production of particles” (priority 2001, dated 2010)

Assay: Particle size of the isolated crystalline product observed under a microscope
[1] = two-stage mixing with two HFC 134A streams (FIG. 6 nozzle), no surfactant
[2] = two-stage mixing, co-precipitation of salicylic acid (20% w/v) and adipic acid (3% w/v) from acetone

particle size [2]	Compound	particle size range [1]	also measured
around 10 microns	O=C(O)CCCCC(=O)O [adipic acid, hexanedioic acid]	10-20 microns	particle size range (comparative single-stage mixing with one HFC 134A stream, no surfactant): 20-100 microns; particle size range (single-stage mixing, HFC 134A, 1% w/w Antorox B12 DF surfactant): 20-200 microns; particle size (single-stage mixing, HFC 134A, 1% w/w Brij 30 added to 10% w/v solution in ethanol): < 10 micron
	CC(=O)Nc1ccc(O)cc1 [paracetamol, N-acetyl-p-aminophenol, reference compound]		particle size (two-stage mixing, HFC 134A, 8% w/v in methanol with 1% w/w Brij 30): < 3 micron
below 3 microns	O=C(O)c1ccccc1O [salicylic acid]		
	O=[N+]([O-])[O-].[Ag+] [silver nitrate]	≤ 3 microns	
